Experiment [1] concerns the target T1, glucocorticoid receptor (GR) (Homo sapiens, UniProt P04150).
T1 construct: made in house; host or cells: Sf9 cells infected with recombinant baculovirus (cytosol preparation)
T1 sequence (P04150 1-777): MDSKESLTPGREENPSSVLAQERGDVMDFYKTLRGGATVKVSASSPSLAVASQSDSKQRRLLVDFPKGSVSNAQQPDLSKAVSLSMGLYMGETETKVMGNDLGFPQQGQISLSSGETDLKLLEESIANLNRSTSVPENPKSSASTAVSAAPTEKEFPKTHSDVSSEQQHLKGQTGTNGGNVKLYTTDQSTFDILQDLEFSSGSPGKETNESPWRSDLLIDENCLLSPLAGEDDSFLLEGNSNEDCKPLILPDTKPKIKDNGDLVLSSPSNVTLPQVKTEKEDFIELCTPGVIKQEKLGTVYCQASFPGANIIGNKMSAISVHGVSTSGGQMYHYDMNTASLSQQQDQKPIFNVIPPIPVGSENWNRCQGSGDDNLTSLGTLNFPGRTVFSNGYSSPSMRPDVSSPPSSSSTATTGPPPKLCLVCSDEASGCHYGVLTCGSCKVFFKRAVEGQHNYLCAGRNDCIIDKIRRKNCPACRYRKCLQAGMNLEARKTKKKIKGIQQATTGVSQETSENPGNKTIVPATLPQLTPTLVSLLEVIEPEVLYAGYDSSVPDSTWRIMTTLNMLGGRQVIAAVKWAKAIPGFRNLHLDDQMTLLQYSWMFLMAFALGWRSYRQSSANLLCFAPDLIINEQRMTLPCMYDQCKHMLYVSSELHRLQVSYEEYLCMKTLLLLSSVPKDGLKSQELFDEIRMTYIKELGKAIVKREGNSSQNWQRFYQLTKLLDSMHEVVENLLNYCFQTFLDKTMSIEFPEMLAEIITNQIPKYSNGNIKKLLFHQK
The experiment can be described thus: Binding to recombinant glucocorticoid receptor, reference [3H]-dexamethasone. As to conditions: cytosol preparations of Sf9 cells infected with recombinant baculoviruses coding for GR; [3H]-dexamethasone reference. The procedure: (§1) The binding of substances to the glucocorticoid receptor (GR) and other steroid hormone receptors (mineral corticoid receptor (MR), progesterone receptor (PR) and androgen receptor (AR)) is tested with the help of recombinant receptors. Cytosol preparations of Sf9 cells infected with recombinant baculoviruses that code for GR are used for binding tests. In comparison with the reference substance [^3H]-dexamethasone, these substances have a high affinity for GR. An IC50 (GR)=20 nM and IC50 (PR)>1 μM have been obtained for the compound from Example 2.

Experiment [2] has as its target T2, progesterone receptor (PR) (Homo sapiens, UniProt P06401).
T2 sequence (P06401 1-933): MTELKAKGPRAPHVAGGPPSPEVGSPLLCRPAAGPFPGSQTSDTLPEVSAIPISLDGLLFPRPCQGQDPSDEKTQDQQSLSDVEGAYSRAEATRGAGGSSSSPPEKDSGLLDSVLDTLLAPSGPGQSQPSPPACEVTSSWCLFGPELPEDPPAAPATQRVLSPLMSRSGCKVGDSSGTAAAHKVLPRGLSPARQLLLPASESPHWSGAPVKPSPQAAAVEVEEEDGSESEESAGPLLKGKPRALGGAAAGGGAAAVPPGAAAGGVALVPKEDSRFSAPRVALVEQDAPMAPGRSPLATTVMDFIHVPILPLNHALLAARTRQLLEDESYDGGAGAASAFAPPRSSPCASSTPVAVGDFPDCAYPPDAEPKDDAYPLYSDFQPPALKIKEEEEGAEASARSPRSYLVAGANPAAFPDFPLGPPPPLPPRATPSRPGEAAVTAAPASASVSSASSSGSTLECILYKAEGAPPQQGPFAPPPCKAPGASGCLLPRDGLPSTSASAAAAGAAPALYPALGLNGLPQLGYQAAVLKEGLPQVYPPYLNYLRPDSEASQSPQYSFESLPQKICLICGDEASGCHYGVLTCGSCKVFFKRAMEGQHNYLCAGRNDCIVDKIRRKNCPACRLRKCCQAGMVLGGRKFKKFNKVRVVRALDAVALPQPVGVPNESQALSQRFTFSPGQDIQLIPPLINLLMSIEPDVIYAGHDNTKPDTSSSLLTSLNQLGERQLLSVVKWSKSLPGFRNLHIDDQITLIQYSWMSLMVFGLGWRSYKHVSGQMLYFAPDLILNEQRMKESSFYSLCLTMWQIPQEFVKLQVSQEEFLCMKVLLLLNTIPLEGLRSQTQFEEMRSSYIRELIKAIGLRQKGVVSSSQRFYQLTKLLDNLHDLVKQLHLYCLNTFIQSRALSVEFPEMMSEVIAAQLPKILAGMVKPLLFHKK
Nature of the experiment: Binding to recombinant progesterone receptor. The procedure: as §1

Experiment [3] concerns secretion of cytokine IL-8 triggered by lipopolysaccharide (LPS) in the human monocyte cell line THP-1. Nature of the experiment: Inhibition of LPS-triggered IL-8 secretion in THP-1 cells (ELISA). The experiment is classed as cell-based. How it is done: The inventive compounds of general formula (I) inhibit the secretion of cytokine IL-8 triggered by lipopolysaccharide (LPS) in the human monocyte cell line THP-1. The concentration of cytokines was determined in the supernatant using commercially available ELISA kits.
In general terms: An ELISA detects its analyte on a solid surface through an enzyme-linked reagent.

Molecules are shown by their SMILES.

For orientation: IC50 means the concentration needed to halve the response being measured. As for `Cc1ccc2c(NC3c4ccc(F)c5c4C(CCO5)CC3(O)C(F)(F)F)cccc2n1` (mixture of isomers) [Example 2, 9-Fluoro-6-[(2-methylquinolin-5-yl)amino]-5-(trifluoromethyl)-2,3,3a,4,5,6-hexahydrobenzo[de]chromen-5-ol], the IC50 in experiment [1] is 20 nM; in experiment [2], greater than 1000 nM; in experiment [3] (Homo sapiens, LPS-stimulated THP-1, IL-8 in supernatant by ELISA, read-out: IC50 (IL8)), 37 nM. The “efficiency with respect to [3H]-dexamethasone as the standard” value in experiment [3] (IL-8 inhibition in LPS-stimulated THP-1) was found to be 70%.

Values taken from patent publication US20060167025A1, “Tricyclic amino alcohols, processes for synthesis of same and use of same as anti-inflammatory drugs” (priority 2004, published 2006).
